According to PubChem BioAssay AID330 (DTP/NCI, 2004):
Where “and” joins values, the source holds several entries; their conditions need not be identical. Equal values may be shown once. Toxic doses and inconclusive results are not listed. The calls were made as follows: active = survival T/C of 150% or more; inactive = T/C below 125% in these data. Square brackets hold non-standard residues; d marks the D form. Peptide text beside a SMILES is read from it. ξ: configuration not given here. ξH = NC(Cc1c[nH]cn1)C(=O)O

Tested on: P388 leukemia ip, CD2F1 mice, survival T/C
Test: NCI In Vivo Anticancer Drug Screen. Data for tumor model P388 Leukemia (intraperitoneal) in CD2F1 (CDF1) mice
Settings: endpoint: median survival time, higher = longer survival
Method in brief: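 Mice carrying the transplanted tumor received test compound or vehicle. Survival was recorded in each group, and the value is the treated-group measurement divided by that of the vehicle-treated control group.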

[1] = dose: 100.0 mg/kg/injection, schedule: Q04DX002 (ip), vehicle: saline
[2] = dose: 200.0 mg/kg/injection, schedule: Q04DX002 (ip), vehicle: saline
[3] = dose: 400.0 mg/kg/injection, schedule: Q04DX002 (ip), vehicle: saline
[4] = dose: 60.0 mg/kg/injection, schedule: Q01DX005 (ip), vehicle: Klucel (hydroxypropylcellulose) (HPC)
[5] = dose: 120.0 mg/kg/injection, schedule: Q01DX005 (ip), vehicle: Klucel (hydroxypropylcellulose) (HPC)
[6] = dose: 240.0 mg/kg/injection, schedule: Q01DX005 (ip), vehicle: Klucel (hydroxypropylcellulose) (HPC)
[7] = dose: 7.5 mg/kg/injection, schedule: Q01DX005 (ip), vehicle: Klucel (hydroxypropylcellulose) (HPC)
[8] = dose: 15.0 mg/kg/injection, schedule: Q01DX005 (ip), vehicle: Klucel (hydroxypropylcellulose) (HPC)
[9] = dose: 30.0 mg/kg/injection, schedule: Q01DX005 (ip), vehicle: Klucel (hydroxypropylcellulose) (HPC)
[10] = dose: 50.0 mg/kg/injection, schedule: Q01DX009 (ip), vehicle: saline with Tween-80
[11] = dose: 100.0 mg/kg/injection, schedule: Q01DX009 (ip), vehicle: saline with Tween-80
[12] = dose: 100.0 mg/kg/injection, schedule: Q04DX002 (ip), vehicle: Klucel (hydroxypropylcellulose) (HPC)
[13] = dose: 200.0 mg/kg/injection, schedule: Q04DX002 (ip), vehicle: Klucel (hydroxypropylcellulose) (HPC)
[14] = dose: 400.0 mg/kg/injection, schedule: Q04DX002 (ip), vehicle: Klucel (hydroxypropylcellulose) (HPC)
[15] = dose: 50.0 mg/kg/injection, schedule: Q01DX009 (ip), vehicle: Klucel (hydroxypropylcellulose) (HPC)
[16] = dose: 200.0 mg/kg/injection, schedule: Q01DX009 (ip), vehicle: Klucel (hydroxypropylcellulose) (HPC)
[17] = dose: 100.0 mg/kg/injection, schedule: Q04DX003 (ip), vehicle: saline
[18] = dose: 200.0 mg/kg/injection, schedule: Q04DX003 (ip), vehicle: saline
[19] = dose: 400.0 mg/kg/injection, schedule: Q04DX003 (ip), vehicle: saline

Measured: T/C

[Cl][Pt+2][Cl].[NH-]C1C(O)OC(CO)C(O)C1O.[NH-]C1C(O)OC(CO)C(O)C1O (stereo not given)
inactive: dose: 25.0 mg/kg/injection, schedule: Q04DX002 (ip), vehicle: saline 105 % of control | dose: 50.0 mg/kg/injection, schedule: Q04DX002 (ip), vehicle: saline 105 % of control | [1] 105 % of control | [2] 112 % of control | [3] 106 % of control

COc1ccc(/C=C2/C(=O)N(c3ccccc3)N=C2C)cc1
inactive: [4] 107 % of control | [5] 104 % of control | [6] 107 % of control

CC(=O)O[C@H]1C[C@@H]2C(COC(=O)CC(C)C)=CO[C@@H](OC(=O)CC(C)C)[C@@H]2[C@@]12CO2
inactive: dose: 3.75 mg/kg/injection, schedule: Q01DX005 (ip), vehicle: Klucel (hydroxypropylcellulose) (HPC) 105 % of control | [7] 101 % of control | [8] 88 % of control | [9] 95 % of control | [4] 101 % of control

O=C1NC2C(=CC(O)C(O)C2O)c2cc3c(cc21)OCO3 (stereo not given)
inactive: dose: 3.12 mg/kg/injection, schedule: Q01DX009 (ip), vehicle: saline + alcohol 102 % of control | dose: 6.25 mg/kg/injection, schedule: Q01DX005 (ip), vehicle: saline + alcohol 111 % of control | dose: 6.25 mg/kg/injection, schedule: Q01DX009 (ip), vehicle: saline + alcohol 102 % of control | dose: 12.5 mg/kg/injection, schedule: Q01DX005 (ip), vehicle: saline + alcohol 111 % of control | dose: 25.0 mg/kg/injection, schedule: Q01DX005 (ip), vehicle: saline + alcohol 105 % of control | dose: 25.0 mg/kg/injection, schedule: Q01DX009 (ip), vehicle: saline + alcohol 101 % of control | dose: 50.0 mg/kg/injection, schedule: Q01DX005 (ip), vehicle: saline + alcohol 105 % of control

N#CCCCCCBr
inactive: [10] 98 % of control | [11] 100 % of control | dose: 200.0 mg/kg/injection, schedule: Q01DX009 (ip), vehicle: saline with Tween-80 100 % of control

O=C1Cc2ccccc2C(=O)N1NCCO
inactive: dose: 100.0 mg/kg/injection, schedule: Q01DX001 (ip), vehicle: saline with Tween-80 103 % of control | dose: 200.0 mg/kg/injection, schedule: Q01DX001 (ip), vehicle: saline with Tween-80 102 % of control | dose: 400.0 mg/kg/injection, schedule: Q01DX001 (ip), vehicle: saline with Tween-80 94 % of control

N#CC(Br)(Br)C#N
inactive: dose: 3.13 mg/kg/injection, schedule: Q01DX009 (ip), vehicle: Klucel (hydroxypropylcellulose) (HPC) 117 % of control | dose: 6.25 mg/kg/injection, schedule: Q01DX009 (ip), vehicle: Klucel (hydroxypropylcellulose) (HPC) 114 % of control

N#CC(CCCCl)(c1ccccc1)c1ccccc1
inactive: [12] 107 % of control | [13] 108 % of control | [14] 108 % of control

COc1ccccc1Nc1n[nH]c(=S)s1
inactive: [15] 121 % of control | dose: 100.0 mg/kg/injection, schedule: Q01DX009 (ip), vehicle: Klucel (hydroxypropylcellulose) (HPC) 105 % of control | [16] 95 % of control

O=C1NC(=O)C2=C1NCCN2
inactive: [17] 107 % of control | [18] 104 % of control | [19] 99 % of control

Cc1nc(C)c(C(=O)O)cc1C(=O)O
inactive: [17] 100 % of control | [18] 95 % of control | [19] 86 % of control

C[P+](CCOC(=O)NC(Cc1ccccc1)C(=O)O)(c1ccccc1)c1ccccc1 (stereo not given)
inactive: [10] 94 % of control | [11] 103 % of control

C=CC(=O)CC1(C(=O)OC)NC(=S)NC(=O)C1C#N (stereo not given)
inactive: [4] 102 % of control | [5] 102 % of control | [6] 98 % of control

CCCCN=C(N)N/N=C(\C)c1ccc(-c2ccccc2)cc1
inactive: dose: 1.25 mg/kg/injection, schedule: Q04DX002 (ip), vehicle: saline with Tween-80 102 % of control | dose: 2.5 mg/kg/injection, schedule: Q04DX002 (ip), vehicle: saline with Tween-80 104 % of control | dose: 5.0 mg/kg/injection, schedule: Q04DX002 (ip), vehicle: saline with Tween-80 104 % of control

C/C=C(\C)c1cc(=O)c2c(C)cc3c(c2o1)C(=O)c1c(O)c(C2CC(C)(N(C)C)C(OC(C)=O)C(C)O2)cc(C2CC(N(C)C)C(O)C(C)O2)c1C3=O (stereo not given)
inactive: dose: 1.25 mg/kg/injection, schedule: Q01DX009 (ip), vehicle: saline 100 % of control | dose: 2.5 mg/kg/injection, schedule: Q01DX009 (ip), vehicle: saline 117 % of control | dose: 5.0 mg/kg/injection, schedule: Q01DX009 (ip), vehicle: saline 89 % of control

CCCC(=O)NN=C(C)C
inactive: dose: 12.5 mg/kg/injection, schedule: Q01DX009 (ip), vehicle: saline 104 % of control | dose: 25.0 mg/kg/injection, schedule: Q01DX009 (ip), vehicle: saline 109 % of control

COc1ccc(OC)c(NC(=O)C2=C(C)NC(C)=C(C(=O)Nc3cc(OC)ccc3OC)C2c2cccc([N+](=O)[O-])c2)c1
inactive: [7] 101 % of control | [8] 94 % of control | [9] 92 % of control

CC(=O)Nc1cc2nc[nH]c2cn1
inactive: [1] 99 % of control | [2] 106 % of control | [3] 106 % of control

C=C[C@]1(C)C[C@@H](OC(=O)CO)[C@@]2(C)[C@H](C)CC[C@]3(CCC(=O)[C@H]32)[C@@H](C)[C@@H]1O
inactive: dose: 12.5 mg/kg/injection, schedule: Q01DX009 (ip), vehicle: Klucel (hydroxypropylcellulose) (HPC) 101 % of control | dose: 25.0 mg/kg/injection, schedule: Q01DX009 (ip), vehicle: Klucel (hydroxypropylcellulose) (HPC) 97 % of control | [15] 101 % of control and 108 % of control and 94 % of control | dose: 150.0 mg/kg/injection, schedule: Q01DX009 (ip), vehicle: Klucel (hydroxypropylcellulose) (HPC) 100 % of control and 95 % of control | [16] 104 % of control and 107 % of control | dose: 400.0 mg/kg/injection, schedule: Q01DX009 (ip), vehicle: Klucel (hydroxypropylcellulose) (HPC) 107 % of control

CN1CCC/C1=C/C(=O)c1ccccc1[N+](=O)[O-]
inactive: [12] 102 % of control | [13] 99 % of control | [14] 100 % of control

NCC(=O)NCC(=O)NC(Cc1cnc[nH]1)C(=O)O (stereo not drawn) (H-Gly-Gly-[ξH]-OH)
inactive: dose: 50.0 mg/kg/injection, schedule: Q01DX005 (ip), vehicle: saline 103 % of control | dose: 100.0 mg/kg/injection, schedule: Q01DX005 (ip), vehicle: saline 96 % of control | dose: 200.0 mg/kg/injection, schedule: Q01DX005 (ip), vehicle: saline 104 % of control

CCCC1(c2ccccc2)CCCC(C#N)C1=N (stereo not given)
inactive: dose: 100.0 mg/kg/injection, schedule: Q04DX003 (ip), vehicle: Klucel (hydroxypropylcellulose) (HPC) 97 % of control | dose: 200.0 mg/kg/injection, schedule: Q04DX003 (ip), vehicle: Klucel (hydroxypropylcellulose) (HPC) 98 % of control | dose: 400.0 mg/kg/injection, schedule: Q04DX003 (ip), vehicle: Klucel (hydroxypropylcellulose) (HPC) 92 % of control

Cc1[nH]oc(=O)c1C(=O)c1ccccc1
inactive: dose: 50.0 mg/kg/injection, schedule: Q01DX005 (ip), vehicle: saline with Tween-80 95 % of control | dose: 100.0 mg/kg/injection, schedule: Q01DX005 (ip), vehicle: saline with Tween-80 91 % of control | dose: 200.0 mg/kg/injection, schedule: Q01DX005 (ip), vehicle: saline with Tween-80 91 % of control

COCCCOC(=O)NCCCCC([NH-])C(=O)O.COCCCOC(=O)NCCCCC([NH-])C(=O)O.[Cu+2] (stereo not given)
inactive: dose: 6.25 mg/kg/injection, schedule: Q01DX005 (ip), vehicle: Klucel (hydroxypropylcellulose) (HPC) 100 % of control | dose: 12.5 mg/kg/injection, schedule: Q01DX005 (ip), vehicle: Klucel (hydroxypropylcellulose) (HPC) 87 % of control | dose: 25.0 mg/kg/injection, schedule: Q01DX005 (ip), vehicle: Klucel (hydroxypropylcellulose) (HPC) 89 % of control
